Laboratory results as given in ChEMBL document CHEMBL3992513, “Synthesis, anti-inflammatory, cyclooxygenases inhibitions assays and histopathological study of poly-substituted 1,3,5-triazines: Confirmation of regiospecific pyrazole cyclization by HMBC” (Eur J Med Chem, 2017).
pIC50: −log10 of the molar value.

Key:
[1] = biological target: T1, Prostaglandin G/H synthase 1 (Ovis aries, UniProt P05979); assay: Inhibition of ovine COX1 using arachidonic acid as substrate preincubated for 5 mins followed by substrate addition measured after 2 mins by enzyme immunoassay
T1 sequence (P05979 whole entry): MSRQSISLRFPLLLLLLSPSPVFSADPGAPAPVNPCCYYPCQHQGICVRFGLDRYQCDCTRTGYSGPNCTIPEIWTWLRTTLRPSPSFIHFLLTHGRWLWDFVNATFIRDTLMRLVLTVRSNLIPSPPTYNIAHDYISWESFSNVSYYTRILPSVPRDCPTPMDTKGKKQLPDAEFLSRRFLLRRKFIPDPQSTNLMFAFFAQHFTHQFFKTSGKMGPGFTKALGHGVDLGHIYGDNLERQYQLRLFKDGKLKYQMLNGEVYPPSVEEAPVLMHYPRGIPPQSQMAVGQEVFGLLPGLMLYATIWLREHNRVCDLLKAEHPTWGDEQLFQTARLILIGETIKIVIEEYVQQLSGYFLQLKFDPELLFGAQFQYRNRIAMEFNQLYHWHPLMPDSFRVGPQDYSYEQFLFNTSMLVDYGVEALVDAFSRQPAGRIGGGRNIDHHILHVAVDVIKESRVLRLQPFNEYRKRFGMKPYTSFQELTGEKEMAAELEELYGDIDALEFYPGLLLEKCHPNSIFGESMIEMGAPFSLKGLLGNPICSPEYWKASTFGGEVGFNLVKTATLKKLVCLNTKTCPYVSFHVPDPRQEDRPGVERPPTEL

[2] = tested on: Rattus norvegicus; assay: Anti-inflammatory activity in Wistar albino rat assessed as inhibition of carragenan-induced paw edema thickness at 50 mg/kg, po measured after 5 hrs relative to control; type: functional
[3] = tested on: Rattus norvegicus; assay: Anti-inflammatory activity in Wistar albino rat assessed as inhibition of carragenan-induced paw edema thickness at 50 mg/kg, po measured after 3 hrs relative to control; type: functional
[4] = tested on: Rattus norvegicus; assay: Anti-inflammatory activity in Wistar albino rat assessed as inhibition of carragenan-induced paw edema thickness at 50 mg/kg, po measured after 1 hr relative to control; type: functional
[5] = tested on: Rattus norvegicus; assay: Ulcerogenicity in Wistar albino rat model of carragenan-induced paw edema assessed as leucocytic infiltration in sub mucosa at 50 mg/kg, po by hematoxylin and eosin staining based histopathological analysis; type: toxicity, organism-based; conditions: in vivo
[6] = tested on: Rattus norvegicus; assay: Ulcerogenicity in Wistar albino rat model of carragenan-induced paw edema assessed as hyalinosis and coagulative necrosis of muscular layer in stomach at 50 mg/kg, po by hematoxylin and eosin staining based histopathological analysis; type: toxicity, organism-based; conditions: in vivo
[7] = tested on: Rattus norvegicus; assay: Ulcerogenicity in Wistar albino rat model of carragenan-induced paw edema assessed as degenrative changes with necrotic changes in gastric mucosa at 50 mg/kg, po by hematoxylin and eosin staining based histopathological analysis; type: toxicity, organism-based; conditions: in vivo
[8] = tested on: Rattus norvegicus; assay: Ulcerogenicity in Wistar albino rat model of carragenan-induced paw edema assessed as blood vessel congestion with edema in sub-mucosa at 50 mg/kg, po by hematoxylin and eosin staining based histopathological analysis; type: toxicity, organism-based; conditions: in vivo
[9] = tested on: Rattus norvegicus; assay: Ulcerogenicity in Wistar albino rat model of carragenan-induced paw edema assessed as blood vessel dilation in sub-mucosa at 50 mg/kg, po by hematoxylin and eosin staining based histopathological analysis; type: toxicity, organism-based; conditions: in vivo
[10] = tested on: Rattus norvegicus; assay: Ulcerogenicity in Wistar albino rat model of carragenan-induced paw edema assessed as corrugations of muscular layer in stomach at 50 mg/kg, po by hematoxylin and eosin staining based histopathological analysis; type: toxicity, organism-based; conditions: in vivo

SMILES	pIC50 [1]	inhibition in vivo at 50 mg/kg [2] [%]	inhibition in vivo at 50 mg/kg [3] [%]	inhibition in vivo at 50 mg/kg [4] [%]	Activity [5]	Activity [6]	Activity [7]	Activity [8]	Activity [9]	Activity [10]
COc1cc(/C=C/C(=O)c2ccc(Nc3nc(N4CCOCC4)nc(N4CCOCC4)n3)cc2)cc(OC)c1OC	5.33	15	18	58	Non-Toxic	Non-Toxic	Non-Toxic	Toxic		
CN(C)/C=C/C(=O)c1ccc(Nc2nc(N3CCCCC3)nc(N3CCCCC3)n2)cc1	5.16	20	14	19						
c1cc(-c2ccc(Nc3nc(N4CCCCC4)nc(N4CCCCC4)n3)cc2)on1	5.14	25	26	51						
c1cc(-c2ccc(Nc3nc(N4CCCCC4)nc(N4CCCCC4)n3)cc2)[nH]n1	5.31	5	24	58						
COc1cc(C2CC(c3ccc(Nc4nc(N5CCCCC5)nc(N5CCCCC5)n4)cc3)=NN2C(C)=O)cc(OC)c1OC (stereo unspecified)	5.45	2	34	45	Toxic		Toxic			
COc1cc(/C=C/C(=O)c2ccc(Nc3nc(N4CCCCC4)nc(N4CCCCC4)n3)cc2)cc(OC)c1OC	5.14									
CC(=O)c1ccc(Nc2nc(N3CCCCC3)nc(N3CCCCC3)n2)cc1	5.08									
Cc1ccc(-c2cc(C(F)(F)F)nn2-c2ccc(S(N)(=O)=O)cc2)cc1 [CELECOXIB]		20	72	77	Toxic		Toxic		Toxic	Toxic
COc1ccc2c(c1)c(CC(=O)O)c(C)n2C(=O)c1ccc(Cl)cc1 [INDOMETHACIN]					Toxic	Toxic	Toxic		Toxic	

More lines, main results first:

pIC50 [1]	SMILES	inhibition in vivo at 50 mg/kg [2] [%]	inhibition in vivo at 50 mg/kg [3] [%]	inhibition in vivo at 50 mg/kg [4] [%]	Activity [5]	Activity [6]	Activity [7]	Activity [8]	Activity [9]	Activity [10]
5.23	CC(=O)c1ccc(Nc2nc(N3CCOCC3)nc(N3CCOCC3)n2)cc1	0	8	21						
5.40	CN(C)/C=C/C(=O)c1ccc(Nc2nc(N3CCOCC3)nc(N3CCOCC3)n2)cc1				Toxic	Toxic	Toxic			
5.41	CS(=O)(=O)c1ccc(-n2nccc2-c2ccc(Nc3nc(N4CCOCC4)nc(N4CCOCC4)n3)cc2)cc1					Non-Toxic	Non-Toxic			
5.28	c1cc(-c2ccc(Nc3nc(N4CCOCC4)nc(N4CCOCC4)n3)cc2)[nH]n1									
5.36	c1cc(-c2ccc(Nc3nc(N4CCOCC4)nc(N4CCOCC4)n3)cc2)on1									
5.19	c1ccc(-n2nccc2-c2ccc(Nc3nc(N4CCCCC4)nc(N4CCCCC4)n3)cc2)cc1	2	18	32						
5.10	CS(=O)(=O)c1ccc(-n2nccc2-c2ccc(Nc3nc(N4CCCCC4)nc(N4CCCCC4)n3)cc2)cc1	20	38	36						
5.30	c1ccc(-n2nccc2-c2ccc(Nc3nc(N4CCOCC4)nc(N4CCOCC4)n3)cc2)cc1				Toxic	Toxic	Toxic	Toxic		
5.06	COc1cc(C2CC(c3ccc(Nc4nc(N5CCOCC5)nc(N5CCOCC5)n4)cc3)=NN2C(C)=O)cc(OC)c1OC (stereo unspecified)									
